The source of these data is ChEMBL document CHEMBL1129010, “The preparation and evaluation of (+/-)-trans-1-Diazo-8-methoxy-4a-methyl-1,2,3,4,4a,9,10,10a-octahydro-phenanthren-2-one as an inhibitor of human type-1 steroid 5-reductase” (Bioorg Med Chem Lett, 1996).

Assay [1] concerns the target T1, 3-oxo-5-alpha-steroid 4-dehydrogenase 1 (Homo sapiens, UniProt P18405).
T1 sequence (P18405 whole entry): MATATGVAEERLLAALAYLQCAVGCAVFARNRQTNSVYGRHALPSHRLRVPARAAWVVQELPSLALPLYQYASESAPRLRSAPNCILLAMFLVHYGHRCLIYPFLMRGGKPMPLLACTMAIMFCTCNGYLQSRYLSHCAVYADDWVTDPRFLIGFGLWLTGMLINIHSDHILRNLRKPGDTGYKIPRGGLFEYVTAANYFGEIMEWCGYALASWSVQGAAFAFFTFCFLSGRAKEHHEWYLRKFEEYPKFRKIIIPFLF
Put plainly: Apparent inhibitory activity against human Steroid 5-alpha-reductase type I expressed in CHO cells; Active. The assay is classed as cell-based.

In assay [2] the target is T2, 3-oxo-5-alpha-steroid 4-dehydrogenase 1 (Rattus norvegicus, UniProt P24008).
T2 sequence (P24008 whole entry): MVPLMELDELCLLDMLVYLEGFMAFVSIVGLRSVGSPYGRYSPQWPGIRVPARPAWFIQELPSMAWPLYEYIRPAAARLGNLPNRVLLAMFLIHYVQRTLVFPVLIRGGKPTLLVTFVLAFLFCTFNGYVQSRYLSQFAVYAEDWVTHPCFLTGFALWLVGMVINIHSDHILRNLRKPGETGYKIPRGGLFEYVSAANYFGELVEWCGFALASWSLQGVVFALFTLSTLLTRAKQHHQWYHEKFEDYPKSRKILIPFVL
Put plainly: Apparent inhibitory activity against rat prostatic Steroid 5-alpha-reductase type I.

Assay [3] deals with T1, 3-oxo-5-alpha-steroid 4-dehydrogenase 1. As to the kind of experiment: Selective apparent inhibitory activity against human Steroid 5-alpha-reductase type I expressed in CHO cells; Active. In kind it is cell-based.
For assay [4] the target is unchanged. Put plainly: Apparent inhibitory activity against human Steroid 5-alpha-reductase type I expressed in CHO cells. The assay is classed as cell-based. As to conditions: read-out: Ki app; call rule not given here.
Assay [5] deals with T3, 3-oxo-5-alpha-steroid 4-dehydrogenase 2 (Homo sapiens, UniProt P31213).
T3 sequence (P31213 whole entry): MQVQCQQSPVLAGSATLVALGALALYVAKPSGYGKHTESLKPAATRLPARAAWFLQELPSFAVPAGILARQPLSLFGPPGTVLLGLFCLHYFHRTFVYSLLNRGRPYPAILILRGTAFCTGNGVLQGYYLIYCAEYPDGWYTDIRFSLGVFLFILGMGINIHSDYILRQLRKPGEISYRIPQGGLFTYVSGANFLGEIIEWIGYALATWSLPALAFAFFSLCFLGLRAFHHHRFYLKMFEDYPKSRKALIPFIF
As to the kind of experiment: Apparent inhibitory activity against human Steroid 5-alpha-reductase type 2 expressed in CHO cells. The conditions noted are these: read-out: Ki app. In kind it is cell-based.

The structures appear in SMILES notation.

As to `CN1C(=O)CC[C@@H]2c3ccc(Cl)cc3CC[C@H]21` [BEXLOSTERIDE], the Ki result in assay [1] is “Active”.

As for `CC(CO)[C@H]1CC[C@H]2[C@@H]3CC[C@H]4C(=[N+]=[N-])C(=O)CC[C@]4(C)[C@H]3CC[C@]12C` (stereo partly specified), in assay [2], the Ki was determined as 35 nM.

For the compound `CN1C(=O)CC[C@]2(C)c3ccc(Cl)cc3CC[C@@H]12`, in assay [1], the Ki result is “Active”.

For `C[C@]12CCC(C(=O)O)=CC1=CCc1cc(Cl)ccc12` (racemic), in assay [3], the Ki result is “Active”.

Turning to `COc1cccc2c1CC[C@H]1[C-]([N+]#N)C(=O)CC[C@]21C`, the Ki in assay [4] stood at 120 nM; in assay [5] it was 2000 nM.
